# Measured values published in patent publication US12325697B2 (Nimbus Clio, Inc., priority 2021, dated 2025).
# What was measured:
# [1] = molecular target: Recombinant human c-Cbl (aa 47-435) (Homo sapiens (Human), UniProt P22681); test: c-Cbl Biochemical Assay (TR-FRET)
# Procedure, shortened: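 Biotinylated c-Cbl (6 nM) preincubated 30 min RT with compound, then reacted 60-90 min with Src-Zap70 (2.5-10 nM) and 0.5 mM ATP, pH 7.0 HEPES buffer. Stopped with EDTA; 100 nM Bodipy-ubiquitinated UBE2D2 binding read by TR-FRET after 60 min; IC50 from 4-parameter fit.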
# [2] = molecular target: Recombinant human Cbl-b (aa 36-427) (Homo sapiens (Human), UniProt Q13191); test: Cbl-b Biochemical Assay (TR-FRET); conditions: read-out: TR-FRET hCbl-b IC50
# Sequence of Recombinant human Cbl-b (aa 36-427) (Q13191 36-427): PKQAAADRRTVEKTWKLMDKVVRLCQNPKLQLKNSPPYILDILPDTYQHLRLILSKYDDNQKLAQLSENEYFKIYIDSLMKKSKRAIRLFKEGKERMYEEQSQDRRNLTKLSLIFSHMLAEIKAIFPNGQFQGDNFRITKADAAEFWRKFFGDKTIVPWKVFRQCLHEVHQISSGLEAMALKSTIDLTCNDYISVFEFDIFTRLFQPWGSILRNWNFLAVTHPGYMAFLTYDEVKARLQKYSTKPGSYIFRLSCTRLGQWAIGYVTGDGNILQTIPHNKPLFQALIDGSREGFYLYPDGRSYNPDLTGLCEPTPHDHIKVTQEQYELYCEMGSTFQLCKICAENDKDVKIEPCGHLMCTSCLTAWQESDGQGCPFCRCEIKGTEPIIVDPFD
# Procedure, shortened: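 Two-step TR-FRET: 6 nM biotinylated Cbl-b preincubated 30-60 min with compound, then 60 min at RT with 1-2.5 nM Src-Zap70 and 0.5 mM ATP in HEPES pH 7.0 buffer, 1% DMSO. Stopped with 5 mM EDTA plus 100 nM UBE2D2-Ub-FL-BODIPY and 1 nM streptavidin-Tb, 60 min; 520 nm signal; IC50 from 4-parameter fit.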
# Sequence of Recombinant human c-Cbl (aa 47-435) (P22681 47-435): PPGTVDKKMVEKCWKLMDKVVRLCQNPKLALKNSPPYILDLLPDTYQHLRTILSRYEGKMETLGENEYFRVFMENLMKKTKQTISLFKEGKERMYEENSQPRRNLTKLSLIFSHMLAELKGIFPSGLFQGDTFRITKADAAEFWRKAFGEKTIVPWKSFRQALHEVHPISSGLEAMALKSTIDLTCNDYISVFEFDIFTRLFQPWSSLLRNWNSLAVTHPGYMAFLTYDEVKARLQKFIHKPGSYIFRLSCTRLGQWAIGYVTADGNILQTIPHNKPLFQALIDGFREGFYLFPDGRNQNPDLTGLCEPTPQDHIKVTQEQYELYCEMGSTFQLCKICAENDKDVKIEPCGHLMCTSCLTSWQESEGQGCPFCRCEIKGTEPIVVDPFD
smiles,measurement,setting,value
"COCCNCc1cc2c(c(F)c1F)CN(c1cc(-c3ccc(C#N)cc3-c3nncn3C)cc(C3CC3)n1)C2=O [AMP-1, 4-[2-Cyclopropyl-6-(4,5-difluoro-6-{[(2-methoxyethyl)amino]methyl}-1-oxo-3H-isoindol-2-yl)pyridin-4-yl]-3-(4-methyl-1,2,4-triazol-3-yl)benzonitrile]",IC50,[1],≤ 200 nM
same,IC50,[2],≤ 200 nM
"Cn1cnnc1-c1cc(C#N)ccc1-c1cc(C2CC2)nc(N2Cc3ccc(CNCC4(CO)CCC4)cc3C2=O)c1 [AMA-2, 4-(2-Cyclopropyl-6-{6-[({[1-(hydroxymethyl)cyclobutyl]methyl}amino)methyl]-1-oxo-3H-isoindol-2-yl}pyridin-4-yl)-3-(4-methyl-1,2,4-triazol-3-yl)benzonitrile]",IC50,[1],≤ 200 nM
same,IC50,[2],≤ 200 nM
"Cn1cnnc1-c1cc(C#N)ccc1-c1cc(C2CC2)nc(N2Cc3c(F)cc(CNCC4CCC4)cc3C2=O)c1 [AKS-1, 4-[2-(6-{1[(Cyclobutylmethyl)amino]methyl}-4-fluoro-1-oxo-3H-isoindol-2-yl)-6-cyclopropylpyridin-4-yl]-3-(4-methyl-1,2,4-triazol-3-yl)benzonitrile]",IC50,[1],≤ 200 nM
same,IC50,[2],≤ 200 nM
"COCCNCc1cc2c(cc1F)CN(c1cc(-c3ccc(C#N)cc3-c3nncn3C)cc(C3CC3)n1)C2=O [AIH-2, 4-(2-Cyclopropyl-6-(5-fluoro-6-(((2-methoxyethyl)amino)methyl)-1-oxoisoindolin-2-yl)pyridin-4-yl)-3-(4-methyl-4H-1,2,4-triazol-3-yl)benzonitrile]",IC50,[1],≤ 200 nM
same,IC50,[2],≤ 200 nM
"Cn1cnnc1-c1cc(C#N)ccc1-c1cc(C2CC2)nc(N2Cc3c(F)cc(CN4CC[C@@H]5OCC[C@@H]54)cc3C2=O)c1 (single isomer, unassigned) [ANG-1]",IC50,[1],≤ 200 nM
same,IC50,[2],≤ 200 nM
"CNCCOCc1ccc2c(c1)C(=O)N(c1cc(-c3ccc(C#N)cc3-c3nncn3C)cc(C3CC3)n1)C2 [AIY-2, 4-[2-Cyclopropyl-6-(6-{[2-(methylamino)ethoxy]methyl}-1-oxo-3H-isoindol-2-yl)pyridin-4-yl]-3-(4-methyl-1,2,4-triazol-3-yl)benzonitrile]",IC50,[1],≤ 200 nM
same,IC50,[2],≤ 200 nM
"Cn1cnnc1-c1cc(C#N)ccc1-c1cc(C2CC2)nc(N2Cc3ccc(CNCC4(C)CCC4)cc3C2=O)c1 [ALP-1, 4-{2-Cyclopropyl-6-[6-({[(1-methylcyclobutyl)methyl]amino}methyl)-1-oxo-3H-isoindol-2-yl]pyridin-4-yl}-3-(4-methyl-1,2,4-triazol-3-yl)benzonitrile]",IC50,[1],≤ 200 nM
same,IC50,[2],≤ 200 nM
"Cn1cnnc1-c1cc(C#N)ccc1-c1cc(C2CC2)nc(N2Cc3ccc(CNCC4CC4)cc3C2=O)c1 [AIB-2, 4-(2-Cyclopropyl-6-(6-(((cyclopropylmethyl)amino)methyl)-1-oxoisoindolin-2-yl)pyridin-4-yl)-3-(4-methyl-4H-1,2,4-triazol-3-yl)benzonitrile]",IC50,[1],≤ 200 nM
same,IC50,[2],≤ 200 nM
"Cn1cnnc1-c1cc(F)ccc1-c1cc(C2CC2)nc(N2Cc3c(F)cc(CO)cc3C2=O)c1 [AMI-1, 2-{6-Cyclopropyl-4-[4-fluoro-2-(4-methyl-1,2,4-triazol-3-yl)phenyl]pyridin-2-yl}-4-fluoro-6-(hydroxymethyl)-3H-isoindol-1-one]",IC50,[1],≤ 200 nM
same,IC50,[2],≤ 200 nM
"Cn1cnnc1-c1cc(C#N)ccc1-c1cc(C2CC2)nc(N2Cc3ccc(CN[C@H]4CCOC4)cc3C2=O)c1 [ANQ-2, 4-[2-Cyclopropyl-6-(1-oxo-6-{[(3S)-oxolan-3-ylamino]methyl}-3H-isoindol-2-yl)pyridin-4-yl]-3-(4-methyl-1,2,4-triazol-3-yl)benzonitrile]",IC50,[1],≤ 200 nM
same,IC50,[2],≤ 200 nM
"Cn1cnnc1-c1cc(C#N)ccc1-c1cc(C2CC2)nc(N2Cc3ccc(C(C)(C)NC4CCC4)cc3C2=O)c1 [AOI-1, 4-(2-{6-[2-(Cyclobutylamino)propan-2-yl]-1-oxo-3H-isoindol-2-yl}-6-cyclopropylpyridin-4-yl)-3-(4-methyl-1,2,4-triazol-3-yl)benzonitrile]",IC50,[1],≤ 200 nM
same,IC50,[2],≤ 200 nM
"COC[C@H]1CCN1Cc1cc(F)c2c(c1)C(=O)N(c1cc(-c3ccc(C#N)cc3-c3nncn3C)cc(C3CC3)n1)C2 [AOW-2, 4-[2-Cyclopropyl-6-(4-fluoro-6-{[(2R)-2-(methoxymethyl)azetidin-1-yl]methyl}-1-oxo-3H-isoindol-2-yl)pyridin-4-yl]-3-(4-methyl-1,2,4-triazol-3-yl)benzonitrile]",IC50,[1],≤ 200 nM
same,IC50,[2],≤ 200 nM
"C[C@H](NCC1COC1)c1ccc2c(c1)C(=O)N(c1cc(-c3ccc(C#N)cc3-c3nncn3C)cc(C3CC3)n1)C2 [ANO-1, (S)-4-(2-Cyclopropyl-6-(6-(1-((oxetan-3-ylmethyl)amino)ethyl)-1-oxoisoindolin-2-yl)pyridin-4-yl)-3-(4-methyl-4H-1,2,4-triazol-3-yl)benzonitrile]",IC50,[1],≤ 200 nM
same,IC50,[2],≤ 200 nM
"Cn1cnnc1-c1cc(C#N)ccc1-c1cc(C2CC2)nc(N2Cc3ccc(CNC4CCC4)cc3C2=O)c1 [ANI-2, 4-(2-{6-[(Cyclobutylamino)methyl]-1-oxo-3H-isoindol-2-yl}-6-cyclopropylpyridin-4-yl)-3-(4-methyl-1,2,4-triazol-3-yl)benzonitrile]",IC50,[1],≤ 200 nM
same,IC50,[2],≤ 200 nM
"CC(=O)NCCNCc1ccc2c(c1)C(=O)N(c1cc(-c3ccc(C#N)cc3-c3nncn3C)cc(C3CC3)n1)C2 [AMB-1, N-(2-{[(2-{4-[4-Cyano-2-(4-methyl-1,2,4-triazol-3-yl)phenyl]-6-cyclopropylpyridin-2-yl}-3-oxo-1H-isoindol-5-yl)methyl]amino}ethyl)acetamide]",IC50,[1],≤ 200 nM
same,IC50,[2],≤ 200 nM
"Cn1cnnc1-c1cc(F)ccc1-c1cc(C2CC2)nc(N2Cc3c(cc(COCCO)cc3C(F)(F)F)C2=O)c1 [AHX-2, 2-(6-Cyclopropyl-4-(4-fluoro-2-(4-methyl-4H-1,2,4-triazol-3-yl)phenyl)pyridin-2-yl)-6-((2-hydroxyethoxy)methyl)-4-(trifluoromethyl)isoindolin-1-one]",IC50,[1],≤ 200 nM
same,IC50,[2],≤ 200 nM
"Cn1cnnc1-c1cc(C#N)ccc1-c1cc(C2CC2)nc(N2Cc3c(F)cc(CN4C[C@]5(C)C[C@H]4CO5)cc3C2=O)c1 [ANU-3, 4-(2-cyclopropyl-6-(4-fluoro-6-(((1S,4S)-1-methyl-2-oxa-5-azabicyclo[2.2.1]heptan-5-yl)methyl)-1-oxoisoindolin-2-yl)pyridin-4-yl)-3-(4-methyl-4H-1,2,4-triazol-3-yl)benzonitrile]",IC50,[1],≤ 200 nM
same,IC50,[2],≤ 200 nM
"Cn1cnnc1-c1cc(C#N)ccc1-c1cccc(N2Cc3ccc(CO)cc3C2=O)c1 [AJD-2, 3′-(6-(Hydroxymethyl)-1-oxoisoindolin-2-yl)-2-(4-methyl-4H-1,2,4-triazol-3-yl)-[1,1′-biphenyl]-4-carbonitrile]",IC50,[1],1000 to 10000 nM
same,IC50,[2],1000 to 10000 nM
"CN(Cc1ccc2c(c1)C(=O)N(c1cc(-c3ccc(C#N)cc3-c3nncn3C)cc(C3CC3)n1)C2)CC1(O)CCC1 [AKP-1, 4-{2-Cyclopropyl-6-[6-({[(1-hydroxycyclobutyl)methyl](methyl)amino}methyl)-1-oxo-3H-isoindol-2-yl]pyridin-4-yl}-3-(4-methyl-1,2,4-triazol-3-yl)benzonitrile]",IC50,[1],≤ 200 nM
same,IC50,[2],≤ 200 nM
"Cn1cnnc1-c1cc(Cl)ccc1-c1cc(C2CC2)nc(N2Cc3ccc(CO)cc3C2=O)c1 [AIU-1, 2-(4-(4-Chloro-2-(4-methyl-4H-1,2,4-triazol-3-yl)phenyl)-6-cyclopropylpyridin-2-yl)-6-(hydroxymethyl)isoindolin-1-one]",IC50,[1],≤ 200 nM
same,IC50,[2],≤ 200 nM
"COCC1(NCc2ccc3c(c2)C(=O)N(c2cc(-c4ccc(C#N)cc4-c4nncn4C)cc(C4CC4)n2)C3)CCC1 [AJG-2, 4-(2-cyclopropyl-6-(6-(((1-(methoxymethyl)cyclobutyl)amino)methyl)-1-oxoisoindolin-2-yl)pyridin-4-yl)-3-(4-methyl-4H-1,2,4-triazol-3-yl)benzonitrile]",IC50,[1],≤ 200 nM
same,IC50,[2],≤ 200 nM
"CN(Cc1ccc2c(c1)C(=O)N(c1cc(-c3ccc(C#N)cc3-c3nncn3C)cc(C3CC3)n1)C2)CC1CCC1 [AMF-1, 4-[2-(6-{[(cyclobutylmethyl)(methyl)amino]methyl}-1-oxo-3H-isoindol-2-yl)-6-cyclopropylpyridin-4-yl]-3-(4-methyl-1,2,4-triazol-3-yl)benzonitrile]",IC50,[1],≤ 200 nM
same,IC50,[2],≤ 200 nM
"Cn1cnnc1-c1cc(C#N)ccc1-c1cc(C2CC2)nc(N2Cc3ccc(C(C)(C)NCC4COC4)cc3C2=O)c1 [AMT-2, 4-[2-Cyclopropyl-6-(6-{2-[(oxetan-3-ylmethyl)amino]propan-2-yl}-1-oxo-3H-isoindol-2-yl)pyridin-4-yl]-3-(4-methyl-1,2,4-triazol-3-yl) benzonitrile]",IC50,[1],≤ 200 nM
same,IC50,[2],≤ 200 nM
"Cn1cnnc1-c1cc(C#N)ccc1-c1cc(C2CC2)nc(N2Cc3c(F)cc(CNC4CC4)cc3C2=O)c1 [ALR-1, 4-(2-Cyclopropyl-6-{6-[(cyclopropylamino)methyl]-4-fluoro-1-oxo-3H-isoindol-2-yl}pyridin-4-yl)-3-(4-methyl-1,2,4-triazol-3-yl)benzonitrile]",IC50,[1],≤ 200 nM
same,IC50,[2],≤ 200 nM
"Cn1cnnc1-c1cc(C#N)ccc1-c1cc(C2CC2)nc(N2Cc3c(F)cc(CN4CC[C@H]5COC[C@@H]54)cc3C2=O)c1 (stereo in doubt) [AOT-2, 4-(2-Cyclopropyl-6-(4-fluoro-6-((hexahydro-1H-furo[3,4-b]pyrrol-1-yl)methyl)-1-oxoisoindolin-2-yl)pyridin-4-yl)-3-(4-methyl-4H-1,2,4-triazol-3-yl)benzonitrile]",IC50,[1],≤ 200 nM
same,IC50,[2],≤ 200 nM
